Test results taken from patent US8232288B2, “Substituted benzimidazoles, benzothiazoles and benzoxazoles” (Gruenenthal GmbH, priority 2009, dated 2012).

What was measured:
[1] = molecular target: T1, human B1R receptor (hB1R) (Homo sapiens, UniProt P46663); experiment: Functional investigation on the bradykinin receptor 1 (B1R), FLIPR Ca2+ assay, hB1R cells; assay type: cell-based
T1 construct: expressed in transfected cells; host or cells: CHO K1 cells
T1 sequence (P46663 1-353): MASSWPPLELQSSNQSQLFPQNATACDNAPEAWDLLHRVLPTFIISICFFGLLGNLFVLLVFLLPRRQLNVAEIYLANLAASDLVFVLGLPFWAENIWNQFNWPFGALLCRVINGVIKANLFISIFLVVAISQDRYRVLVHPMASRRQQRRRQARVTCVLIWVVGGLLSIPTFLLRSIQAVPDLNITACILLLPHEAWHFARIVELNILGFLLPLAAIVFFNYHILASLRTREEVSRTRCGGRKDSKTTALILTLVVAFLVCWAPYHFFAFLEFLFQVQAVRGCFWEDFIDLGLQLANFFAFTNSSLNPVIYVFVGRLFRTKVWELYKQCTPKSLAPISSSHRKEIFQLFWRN
Method: (§1) The agonistic or antagonistic action of substances can be quantified on the bradykinin receptor 1 (B1R) of the human and rat species with ectopically expressing cell lines (CHO K1 cells) and with the aid of a Ca^2+-sensitive dyestuff (Fluo-4) in a fluorescent imaging plate reader (FLIPR). The figure in % activation is based on the Ca^2+ signal after addition of Lys-Des-Arg^9-bradykinin (0.5 nM) or Des-Arg^9-bradykinin (100 nM). Antagonists lead to a suppression of the Ca^2+ inflow after addition of the agonist. % inhibition compared with the maximum achievable inhibition is stated.
(§2) The agonistic or antagonistic action of substances can be determined on the bradykinin receptor 1 (B1R) of the human and rat species with the following assay. In accordance with this assay, the Ca^2+ inflow through the channel is quantified with the aid of a Ca^2+-sensitive dyestuff (type Fluo-4, Molecular Probes Europe BV, Leiden Holland) in a fluorescent imaging plate reader (FLIPR, Molecular Devices, Sunnyvale, USA).
(§3) Chinese hamster ovary cells (CHO K1 cells) transfected stably with the human B1R gene (hB1R cells) or the B1R gene of the rat (rB1R cells) are used. For functional studies, these cells are plated out on black 96-well plates with a clear base (BD Biosciences, Heidelberg, Germany or Greiner, Frickenhausen, Germany) in a density of 20,000-35,000 cells/well. The cells are left overnight at 37° C. and 5% CO2 in culture medium (hB1R cells: Nutrient Mixture Ham's F12, Gibco Invitrogen GmbH, Karlsruhe, Germany or DMEM, Sigma-Aldrich, Taufkirchen, Germany; rB1R cells: D-MEM/F12, Gibco Invitrogen GmbH, Karlsruhe, Germany) with 10 vol. % FBS (foetal bovine serum, Gibco Invitrogen GmbH, Karlsruhe, Germany or PAN Biotech GmbH, Aidenbach, Germany). On the following day, the cells are loaded for 60 min at 37° C. with 2.13 μM Fluo-4 (Molecular Probes Europe BV, Leiden Holland) in HBSS buffer (Hank's buffered saline solution, Gibco Invitrogen GmbH, Karlsruhe, Germany) with 2.5 mM probenecid (Sigma-Aldrich, Taufkirchen, Germany) and 10 mM HEPES (Sigma-Aldrich, Taufkirchen, Germany). The plates are then washed 2× with HBSS buffer, and HBSS buffer which additionally contains 0.1% BSA (bovine serum albumin; Sigma-Aldrich, Taufkirchen, Germany), 5.6 mM glucose and 0.05% gelatine (Merck KGaA, Darmstadt, Germany) is added. After a further incubation of 20 minutes at room temperature, the plates are inserted into the FLIPR for the Ca^2+ measurement.
(§4) Alternatively, the plates are washed with buffer A (15 mM HEPES, 80 mM NaCl, 5 mM KCl, 1.2 mM CaCl2, 0.7 mM MgSO4, 2 g/l glucose, 2.5 mM probenecid), buffer A is added and the plates are loaded with 2.5 μM Fluo-4 and 0.025% Pluronic F127 (Sigma-Aldrich, Taufkirchen, Germany). Thereafter, the cells are washed 2× with buffer A and incubated for 30 minutes at room temperature with buffer A, which additionally contains 0.05% BSA and 0.05% gelatine, and thereafter inserted into the FLIPR for the Ca^2+ measurement.
(§5) The Ca^2+-dependent fluorescence is measured here before and after addition of substances (λex=488 nm, λem=540 nm). Quantification is by measurement of the highest fluorescence intensity (FC, fluorescence counts) over time.
(§6) The FLIPR protocol consists of 2 additions of substance. Test substances (10 μM) are first pipetted on to the cells and the Ca^2+ inflow is compared with the control (hB1R: Lys-Des-Arg^9-bradykinin>=50 nM; rB1R: Des-Arg^9-bradykinin 10 μM). This gives the result in % activation based on the Ca^2+ signal after addition of Lys-Des-Arg^9-bradykinin (>=50 nM) or Des-Arg^9-bradykinin (10 μM). After incubation for 10-20 minutes, Lys-Des-Arg^9-bradykinin (hB1R) or Des-Arg^9-bradykinin (rB1R) in the concentration of the EC80 is applied and the inflow of Ca^2+ is likewise determined. Antagonists lead to a suppression of the Ca^2+ inflow. % inhibition compared with the maximum achievable inhibition is calculated.
(§7) In order to determine the IC50 value, the substances are added in various concentrations. […]

[2] = molecular target: T2, B1R receptor of the rat (rB1R) (Rattus norvegicus, UniProt P97583); experiment: Functional investigation on the bradykinin receptor 1 (B1R), FLIPR Ca2+ assay, rB1R cells; assay type: cell-based
T2 construct: expressed in transfected cells; host or cells: CHO K1 cells
T2 sequence (P97583 1-337): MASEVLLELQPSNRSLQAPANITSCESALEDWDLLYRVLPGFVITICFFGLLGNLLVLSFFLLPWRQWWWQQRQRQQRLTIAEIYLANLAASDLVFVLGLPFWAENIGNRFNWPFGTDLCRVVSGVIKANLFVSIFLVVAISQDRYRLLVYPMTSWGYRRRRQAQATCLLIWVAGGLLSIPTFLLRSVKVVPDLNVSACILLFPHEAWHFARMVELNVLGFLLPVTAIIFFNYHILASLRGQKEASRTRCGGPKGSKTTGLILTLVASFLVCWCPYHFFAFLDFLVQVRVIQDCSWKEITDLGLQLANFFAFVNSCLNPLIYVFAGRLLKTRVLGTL
Method: as §1, §2, §3, §4, §5, §6, §7

Row | inhibition at 10 µM [1] | inhibition at 10 µM [2] | Structure (SMILES)
1 | 54% | 80% | COc1cc(C)c(S(=O)(=O)N(C)c2nc3c(C(=O)N4CCC5(CC4)CCN(c4ccncc4)CC5)cccc3s2)c(C)c1 [I_CC-19, 4-methoxy-N,2,6-trimethyl-N-[4-(3-pyridin-4-yl-3,9-diazaspiro[5.5]undecane-9-carbonyl)-benzothiazol-2-yl]-benzenesulfonic acid amide]
2 | 98% | 103% | COc1cc(C)c(S(=O)(=O)N(C)CCc2nc3ccc(C(=O)N4CCC5(CC4)CCN(c4ccncc4)CC5)cc3[nH]2)c(C)c1 [I_26, 4-methoxy-N,2,6-trimethyl-N-[2-[6-(9-pyridin-4-yl-3,9-diazaspiro[5.5]undecane-3-carbonyl)-1H-benzoimidazol-2-yl]-ethyl]-benzenesulfonic acid amide]
3 | 95% | 24% | Cc1ccc(Cl)c(S(=O)(=O)N(C)Cc2nc3cccc(C(=O)N4CCC5(CC4)CCN(c4ccncc4)CC5)c3[nH]2)c1Cl [I_17, 2,6-dichloro-N,3-dimethyl-N-[[7-(9-pyridin-4-yl-3,9-diazaspiro[5.5]undecane-3-carbonyl)-1H-benzoimidazol-2-yl]-methyl]-benzenesulfonic acid amide]
4 | 71% | 56% | COc1cc(C)c(S(=O)(=O)N(C)c2nc3ccc(C(=O)N4CCC5(CC4)CCN(c4ccncc4)CC5)cc3n2C)c(C)c1 [I_CC-17, 4-methoxy-N,2,6-trimethyl-N-[1-methyl-6-(3-pyridin-4-yl-3,9-diazaspiro[5.5]undecane-9-carbonyl)-1H-benzoimidazol-2-yl]-benzenesulfonic acid amide]
5 | 100% | 102% | CN(Cc1nc2ccc(C(=O)N3CCC4(CC3)CCN(c3ccncc3)CC4)cc2[nH]1)S(=O)(=O)c1ccccc1C(F)(F)F [I_24, N-methyl-N-[[6-(9-pyridin-4-yl-3,9-diazaspiro[5.5]undecane-3-carbonyl)-1H-benzoimidazol-2-yl]-methyl]-2-(trifluoromethyl)-benzenesulfonic acid amide]
6 | 84% | 94% | COc1cc(C)c(S(=O)(=O)N(C)C(C)c2nc3cccc(C(=O)N4CCC5(CCN(Cc6c(F)cccc6F)CC5)CC4)c3[nH]2)c(C)c1 (stereo not drawn) [I_CC-29, N-[1-[7-[9-[(2,6-Difluoro-phenyl)-methyl]-3,9-diazaspiro[5.5]undecane-3-carbonyl]-1H-benzoimidazol-2-yl]-ethyl]-4-methoxy-N,2,6-trimethyl-benzenesulfonic acid amide]
7 | 91% | 89% | COc1cc(C)c(S(=O)(=O)N(C)C(C)c2nc3cccc(C(=O)N4CCC5(CCN(Cc6ccccn6)CC5)CC4)c3[nH]2)c(C)c1 (stereo not drawn) [I_CC-26, 4-Methoxy-N,2,6-trimethyl-N-[1-[7-[9-(pyridin-2-yl-methyl)-3,9-diazaspiro[5.5]undecane-3-carbonyl]-1H-benzoimidazol-2-yl]-ethyl]-benzenesulfonic acid amide]
8 | 100% | 76% | COc1cc(C)c(S(=O)(=O)N2CCCC2c2nc3cccc(C(=O)N4CCC5(CC4)CCN(c4ccncc4)CC5)c3[nH]2)c(C)c1 (stereo not drawn) [I_19, [2-[1-[(4-methoxy-2,6-dimethyl-phenyl)sulfonyl]-pyrrolidin-2-yl]-3H-benzoimidazol-4-yl]-(9-pyridin-4-yl-3,9-diazaspiro[5.5]undecan-3-yl)-methanone]
9 | 90% | 92% | COc1cc(C)c(S(=O)(=O)N(C)C(C)c2nc3cccc(C(=O)N4CCC5(CCN(Cc6ccncc6)CC5)CC4)c3[nH]2)c(C)c1 (stereo not drawn) [I_CC-27, 4-Methoxy-N,2,6-trimethyl-N-[1-[7-[9-(pyridin-4-yl-methyl)-3,9-diazaspiro[5.5]undecane-3-carbonyl]-1H-benzoimidazol-2-yl]-ethyl]-benzenesulfonic acid amide]
10 | 100% | 99% | CN(Cc1nc2cccc(C(=O)N3CCC4(CC3)CCN(c3ccncc3)CC4)c2[nH]1)S(=O)(=O)c1ccccc1C(F)(F)F [I_08, N-methyl-N-[[7-(9-pyridin-4-yl-3,9-diazaspiro[5.5]undecane-3-carbonyl)-1H-benzoimidazol-2-yl]-methyl]-2-(trifluoromethyl)-benzenesulfonic acid amide]
11 | 100% | 102% | COc1cc(C)c(S(=O)(=O)N(C)Cc2nc3cccc(C(=O)N4CCC5(CC4)CCN(c4ccncc4)C5)c3[nH]2)c(C)c1 [I_CC-06, 4-methoxy-N,2,6-trimethyl-N-[[7-(3-pyridin-4-yl-3,8-diazaspiro[4.5]decane-8-carbonyl)-1H-benzoimidazol-2-yl]-methyl]-benzenesulfonic acid amide]
12 | 91% | 105% | CN(Cc1nc2cccc(C(=O)N3CCC4(CC3)CCN(c3ccncc3)CC4)c2[nH]1)C(=O)c1ccc(Cl)s1 [I_16, 5-chloro-N-methyl-N-[[7-(9-pyridin-4-yl-3,9-diazaspiro[5.5]undecane-3-carbonyl)-1H-benzoimidazol-2-yl]-methyl]-thiophene-2-carboxylic acid amide]

Row | Structure (SMILES) | inhibition at 10 µM [1] | inhibition at 10 µM [2]
13 | COc1cc(C)c(S(=O)(=O)N(C)C(C)c2nc3cccc(C(=O)N4CCC5(CCN(Cc6ccc(F)c(F)c6)CC5)CC4)c3[nH]2)c(C)c1 (stereo not drawn) [I_CC-30, N-[1-[7-[9-[(3,4-Difluoro-phenyl)-methyl]-3,9-diazaspiro[5.5]undecane-3-carbonyl]-1H-benzoimidazol-2-yl]-ethyl]-4-methoxy-N,2,6-trimethyl-benzenesulfonic acid amide] | 63% | 99%
14 | COc1cc(C)c(S(=O)(=O)N(C)C(C)c2nc3cccc(C(=O)N4CCC5(CC4)CCN(S(=O)(=O)c4cccc6c4ccn6C)CC5)c3[nH]2)c(C)c1 (stereo not drawn) [I_CC-60, 4-Methoxy-N,2,6-trimethyl-N-[1-[7-[9-[(1-methyl-1H-indol-4-yl)sulfonyl]-3,9-diazaspiro[5.5]undecane-3-carbonyl]-1H-benzoimidazol-2-yl]-ethyl]-benzenesulfonic acid amide] | – | 101%
